Here are results for eight molecules from ChEMBL document CHEMBL1201862, “PubChem BioAssay data set” (2004).

The source made the active and inactive calls.

One assay addresses Aspartyl aminopeptidase (Plasmodium falciparum 3D7, UniProt Q8I2J3).
A further assay addresses Procathepsin L (Homo sapiens, UniProt P07711).
Another assay concerns the target Oxytocin receptor (Homo sapiens, UniProt P30559). Kind of assay: Fluorescence-based cell-based high throughput dose response assay for agonists of the Oxytocin Receptor (OXTR). [Related pubchem assays: 2435 (Primary screen (OXTR agonists in singlicate)), 434991 (Counterscreen (V1R agonists in triplicate)), 2482 (Summary (OXTR agonists)), 434963 (Confirmation screen (OXTR agonists in triplicate))]. It is filed as functional.

Another assay concerns the target Vasopressin V1a receptor (Homo sapiens, UniProt P37288). Kind of assay: Counterscreen for Oxytocin Receptor (OXTR) agonists: Fluorescence-based cell-based high throughput dose response assay to identify agonists of the vasopressin 1 receptor (V1R). [Related pubchem assays: 2435 (Primary screen (OXTR agonists in singlicate)), 434991 (Counterscreen (V1R agonists in triplicate)), 2482 (Summary (OXTR agonists)) …. It is filed as functional. Background: A counterscreen serves to expose hits that act by an unwanted route or on another target.

Assay [1] concerns the target T1, Tyrosine-protein phosphatase non-receptor type 7 (Homo sapiens, UniProt P35236).
T1 sequence (P35236 whole entry): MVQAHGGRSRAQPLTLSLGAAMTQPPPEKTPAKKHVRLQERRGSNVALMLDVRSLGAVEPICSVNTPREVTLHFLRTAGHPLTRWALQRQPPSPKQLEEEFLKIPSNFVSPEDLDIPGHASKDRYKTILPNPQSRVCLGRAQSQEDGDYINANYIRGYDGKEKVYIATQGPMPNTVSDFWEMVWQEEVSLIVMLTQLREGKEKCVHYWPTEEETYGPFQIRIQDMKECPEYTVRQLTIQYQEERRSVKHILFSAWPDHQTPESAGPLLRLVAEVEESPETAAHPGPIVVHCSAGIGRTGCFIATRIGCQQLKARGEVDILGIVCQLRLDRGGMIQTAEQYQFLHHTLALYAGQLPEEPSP
The experiment in a line: redox-active compounds inhibiting HePTP phosphatase – biochemical, fluorescence, mechanism study (AID 2068). The class given is functional.

Assay [2] has as its target T1, Tyrosine-protein phosphatase non-receptor type 7. It is filed as functional.
In assay [3] the target is Glyceraldehyde-3-phosphate dehydrogenase (Homo sapiens, UniProt P04406).
The target of assay [4] is T2, Dual specificity protein phosphatase 6 (Rattus norvegicus, UniProt Q64346).
T2 sequence (Q64346 whole entry): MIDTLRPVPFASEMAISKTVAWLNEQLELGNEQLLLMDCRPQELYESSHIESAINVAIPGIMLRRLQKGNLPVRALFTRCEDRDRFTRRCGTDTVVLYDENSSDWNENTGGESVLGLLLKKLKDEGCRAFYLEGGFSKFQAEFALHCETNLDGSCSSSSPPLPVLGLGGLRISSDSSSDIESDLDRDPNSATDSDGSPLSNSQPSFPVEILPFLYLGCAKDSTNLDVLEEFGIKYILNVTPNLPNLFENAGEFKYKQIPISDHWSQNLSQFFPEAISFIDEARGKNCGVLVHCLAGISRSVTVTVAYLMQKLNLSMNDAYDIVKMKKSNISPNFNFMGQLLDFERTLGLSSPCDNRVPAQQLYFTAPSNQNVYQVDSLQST
It is filed as functional.

For assay [5], the target named is T3, Dual specificity protein phosphatase 3 (Homo sapiens, UniProt P51452). Kind of assay: SAR VHR1 Fluorescent Assay for In Vitro dose response studies. [Related pubchem assays (depositor defined):AID1654, AID1661, AID1878, AID1992, AID2004, AID2070, AID2085]. It is filed as functional.
Assay [6] has as its target T3, Dual specificity protein phosphatase 3. Kind of assay: MOA VHR1 Fluorescent secondary assay for identification of redox-state modulating compounds. [Related pubchem assays (depositor defined):AID1654, AID1661, AID1878, AID1957].
In assay [7] the target is T2, Dual specificity protein phosphatase 6.
The target of assay [8] is Acyl-homoserine lactone acylase PvdQ (Pseudomonas aeruginosa (strain LESB58), UniProt Q9I194). Kind of assay: PvdQ acylase enzyme activity blockers – biochemical, fluorescence, plate reader and imaging, cherry-picks, dose response (AID 493231).
Assay [9] addresses Heat shock 70 kDa protein 1A (Homo sapiens, UniProt P0DMV8). Kind of assay: inhibition of Hsp70 binding activity – biochemical, fluorescence polarization, SAR follow-up (AID 1072). (Fluorescence polarisation rises when a labelled molecule tumbles more slowly, as on binding a larger partner.)
Assay [10] concerns the target Heat shock cognate 71 kDa protein (Homo sapiens, UniProt P11142). The experiment in a line: In Vitro Hsc70 Dose Response Fluorescence Polarization Assay. [Related pubchem assays: 1072 ].
Assay [11] addresses Luciferin 4-monooxygenase (Photinus pyralis, UniProt P08659). Kind of assay: In vitro luciferase assay using purified luciferase. [Related pubchem assays: 1299, 1270, 1295, 1375, 1287, 1281, 1293, 1291, 1289, 1280, 465, 1364, 1282, 1372, 1365, 1370, 1367, 1366, 1266, 1373, 1292, 1290, 1302, 1371, 1283, 1271, 1294, 1374, 1368, 1369 ].
Assay [12] has as its target T4, Microphthalmia-associated transcription factor (Homo sapiens, UniProt O75030).
T4 sequence (O75030 whole entry): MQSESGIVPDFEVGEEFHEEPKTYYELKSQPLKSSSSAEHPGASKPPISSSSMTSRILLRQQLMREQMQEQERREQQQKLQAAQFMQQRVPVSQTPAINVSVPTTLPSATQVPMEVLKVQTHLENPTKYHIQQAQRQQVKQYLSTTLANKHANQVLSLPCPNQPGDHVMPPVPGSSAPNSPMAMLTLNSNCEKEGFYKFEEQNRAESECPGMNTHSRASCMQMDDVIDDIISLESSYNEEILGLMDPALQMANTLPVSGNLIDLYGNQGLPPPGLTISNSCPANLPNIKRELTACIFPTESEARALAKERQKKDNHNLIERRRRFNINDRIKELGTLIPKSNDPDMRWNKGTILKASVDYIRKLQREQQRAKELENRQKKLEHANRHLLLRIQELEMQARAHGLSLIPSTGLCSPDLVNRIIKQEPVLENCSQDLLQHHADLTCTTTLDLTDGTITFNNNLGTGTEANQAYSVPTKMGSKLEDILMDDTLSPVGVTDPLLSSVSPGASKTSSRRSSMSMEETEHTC
The experiment in a line: reducers of TRPM1 reporter luminescence, concentration series – cell-based, SK-MEL-5, cherry-picked, set 3, MITF inhibitor project, dose response (AID 493073).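 Further: SK-MEL-5 melanoma cells with luciferase driven by the MITF target TRPM1 promoter.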 It is filed as functional.

Assay [13] concerns A-375. The experiment in a line: MITF: Counter assay: A375 proliferation Measured in Cell-Based System Using Plate Reader - 2084-03_Inhibitor_Dose_DryPowder_Activity. [Related pubchem assays (depositor defined):AID488944]. It is filed as functional. The conditions noted are these: Homo sapiens.
Assay [14] can be described thus: alpha-synuclein stem-loop translation blockers – luminescence, H4 neuroglioblastoma cells, dose confirmation, confirmation (AID 2454).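 Further: H4 neuroglioblastoma cells carrying an alpha-synuclein 5'UTR luciferase reporter; potency for inhibition of the luciferase signal.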 It is filed as functional, cell-based.
In assay [15] the test system is A-375. The experiment in a line: proliferation inhibition in MITF-low A375 cells – cell-based, cherry-pick samples, set 2, counter-screen for MITF modulator project, dose response (AID 540335). It is filed as functional. The following applies: Homo sapiens.
The subject of assay [16] is HEK293. The experiment in a line: PMA/Ionomycin-induced IL-8 production in HEK293- NF-kB-Luc stable cells. [Related pubchem assays: 1299, 1295, 1375, 1287, 1281, 1293, 1291, 1289, 1280, 465, 1364, 1282, 1372, 1365, 1367, 1366, 1266, 1269, 1373, 1292, 1290, 1302, 1371, 1283, 1271, 1294, 1374, 1368, 1369 ]. The class given is functional, cell-based. The following applies: Homo sapiens.

Assay [17] in a line: luciferase reporter signal reduction – luminescence, H4-C neuroglioblastoma cells, dose response (AID 2458).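 Further: H4 neuroglioblastoma cells stably carrying a luciferase reporter gene fusion.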 It is filed as functional, cell-based.
Assay [18] concerns HEK293. Kind of assay: PMA/Ionomycin induced NF-kB luciferase assay in 293- NF-kB-Luc stable cells. [Related pubchem assays: 1299, 1270, 1295, 1375, 1287, 1281, 1293, 1291, 1289, 1280, 465, 1364, 1282, 1372, 1365, 1370, 1367, 1366, 1269, 1373, 1292, 1290, 1302, 1371, 1283, 1271, 1294, 1374, 1368, 1369 ]. It is filed as functional, cell-based. The conditions noted are these: Homo sapiens.

Assay [19] is described as follows: HEK-293T viability loss after treatment – luminescence, T-cell screen hits, cytotoxicity control for TCR NF-kB inhibitor project, dose response (AID 489026).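 Further: cells exposed to compound about 14 hours before the viability readout.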 It is filed as functional, cell-based.
The next assay can be described thus: cells. It is filed as functional, cell-based.
In assay [20] the test system is HEK293. The experiment in a line: Cytotoxicity assay in HEK293 cells. [Related pubchem assays (depositor defined):AID1266, AID1269, AID1270, AID1271, AID1280, AID1281, AID1282, AID1283, AID1287, AID1289, AID1290, AID1291, AID1292, AID1293, AID1294, AID1295, AID1299, AID1302, AID1364, AID1365, AID1366, AID1367, AID1369, AID1370, AID1371, AID1372, AID1373, AID1374, AID1375, AID1384 …. The class given is functional, cell-based. The conditions noted are these: Homo sapiens.

Assay [21] is described as follows: luciferase reporter signal suppression in cells – H4 neuroglioma cells, luminescence, dose response (AID 1990). It is filed as functional, cell-based. Background: A reporter such as luciferase makes a cellular process visible.
The test system of assay [22] is HEK293. Kind of assay: TNF Induced NF-kB Luciferase in 293-NF-kB-Luc Stable Cells. [Related pubchem assays: 1266, 1299, 1269, 1373, 1292, 1290, 1302, 1371, 1283, 1270, 1295, 1271, 1375, 1294, 1374, 1281, 1293, 1291, 1289, 1280, 465, 1368, 1364, 1282, 1372, 1365, 1369, 1370, 1367, 1366 ]. The class given is functional, cell-based. The following applies: Homo sapiens.

Assay [23] is described as follows: alpha-synuclein stem-loop luciferase translation blockers – H4 neuroglioma cells, luminescence, confirmation (AID 1988). It is filed as functional, cell-based.
For the next assay, the system named is BJ. Kind of assay: cells. The class given is functional, cell-based. The following applies: Homo sapiens.
The next assay addresses Cytochrome P450 2C9 (Homo sapiens, UniProt P11712). The following applies: Potency.
Another assay addresses Cytochrome P450 2D6 (Homo sapiens, UniProt P10635). Kind of assay: qHTS Assay for Inhibitors and Substrates of Cytochrome P450 2D6. [Related pubchem assays: 410 ]. It is filed as ADME. The following applies: read-out: Potency.
The next assay deals with Cytochrome P450 2C19 (Homo sapiens, UniProt P33261). The experiment in a line: qHTS Assay for Inhibitors and Substrates of Cytochrome P450 2C19. [Related pubchem assays: 410 ]. The class given is ADME. The following applies: read-out: Potency.

The term IC50 denotes the concentration needed to halve the response being measured. Usually EC50 stands for the concentration that produces a half-maximal response.

T3 sequence (P51452 whole entry): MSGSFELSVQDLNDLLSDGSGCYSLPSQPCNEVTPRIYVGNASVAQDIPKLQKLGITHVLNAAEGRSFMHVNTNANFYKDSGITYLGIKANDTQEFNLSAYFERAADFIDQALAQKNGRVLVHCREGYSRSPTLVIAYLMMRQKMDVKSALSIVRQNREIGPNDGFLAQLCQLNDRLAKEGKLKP
Sequence of Glyceraldehyde-3-phosphate dehydrogenase (P04406 whole entry): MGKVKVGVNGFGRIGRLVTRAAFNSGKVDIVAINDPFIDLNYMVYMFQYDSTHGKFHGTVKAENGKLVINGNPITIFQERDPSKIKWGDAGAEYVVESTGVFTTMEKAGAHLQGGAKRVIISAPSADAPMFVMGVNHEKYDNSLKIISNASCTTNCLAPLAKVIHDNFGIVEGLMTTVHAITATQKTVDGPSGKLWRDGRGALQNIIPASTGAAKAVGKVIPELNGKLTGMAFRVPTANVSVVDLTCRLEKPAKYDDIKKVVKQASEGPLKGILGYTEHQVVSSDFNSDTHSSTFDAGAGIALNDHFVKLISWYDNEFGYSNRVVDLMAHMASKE
Sequence of Luciferin 4-monooxygenase (P08659 whole entry): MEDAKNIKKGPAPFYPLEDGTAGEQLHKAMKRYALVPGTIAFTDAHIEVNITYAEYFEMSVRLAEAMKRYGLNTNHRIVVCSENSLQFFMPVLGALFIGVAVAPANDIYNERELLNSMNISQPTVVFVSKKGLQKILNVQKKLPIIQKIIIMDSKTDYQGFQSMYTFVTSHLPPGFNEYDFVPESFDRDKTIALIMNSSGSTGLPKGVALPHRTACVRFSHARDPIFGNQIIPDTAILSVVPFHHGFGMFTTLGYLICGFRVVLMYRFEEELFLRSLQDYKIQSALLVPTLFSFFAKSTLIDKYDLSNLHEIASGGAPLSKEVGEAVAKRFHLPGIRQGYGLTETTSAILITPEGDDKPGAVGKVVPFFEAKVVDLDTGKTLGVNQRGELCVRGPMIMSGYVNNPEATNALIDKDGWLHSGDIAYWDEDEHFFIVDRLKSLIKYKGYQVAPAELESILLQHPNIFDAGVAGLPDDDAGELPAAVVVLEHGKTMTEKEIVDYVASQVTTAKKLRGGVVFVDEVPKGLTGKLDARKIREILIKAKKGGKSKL
Sequence of Procathepsin L (P07711 whole entry): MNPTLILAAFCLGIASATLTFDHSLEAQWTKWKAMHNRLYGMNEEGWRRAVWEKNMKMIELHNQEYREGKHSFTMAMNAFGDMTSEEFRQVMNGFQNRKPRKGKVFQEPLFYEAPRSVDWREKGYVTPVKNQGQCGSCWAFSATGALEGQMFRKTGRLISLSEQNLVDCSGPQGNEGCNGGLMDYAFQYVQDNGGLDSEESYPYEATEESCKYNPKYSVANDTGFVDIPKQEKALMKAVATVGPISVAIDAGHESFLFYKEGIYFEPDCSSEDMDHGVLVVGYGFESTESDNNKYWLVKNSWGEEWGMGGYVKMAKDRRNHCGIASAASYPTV
Sequence of Aspartyl aminopeptidase (Q8I2J3 whole entry): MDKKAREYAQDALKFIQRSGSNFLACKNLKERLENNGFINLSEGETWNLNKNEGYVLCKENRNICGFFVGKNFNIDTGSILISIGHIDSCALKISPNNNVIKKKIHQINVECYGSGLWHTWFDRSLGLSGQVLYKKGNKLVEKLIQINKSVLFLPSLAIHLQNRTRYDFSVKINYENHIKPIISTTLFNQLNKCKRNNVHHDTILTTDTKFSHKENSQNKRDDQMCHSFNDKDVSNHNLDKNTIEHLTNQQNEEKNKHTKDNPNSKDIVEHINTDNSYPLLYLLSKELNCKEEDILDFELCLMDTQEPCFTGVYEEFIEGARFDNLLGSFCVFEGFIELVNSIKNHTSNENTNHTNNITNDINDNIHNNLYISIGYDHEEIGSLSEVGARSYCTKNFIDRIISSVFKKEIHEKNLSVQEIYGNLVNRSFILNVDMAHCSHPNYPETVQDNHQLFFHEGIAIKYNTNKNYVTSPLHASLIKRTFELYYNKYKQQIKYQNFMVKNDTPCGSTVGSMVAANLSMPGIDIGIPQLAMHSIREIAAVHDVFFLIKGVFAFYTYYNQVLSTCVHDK
Sequence of Acyl-homoserine lactone acylase PvdQ (Q9I194 24-193 limits assumed): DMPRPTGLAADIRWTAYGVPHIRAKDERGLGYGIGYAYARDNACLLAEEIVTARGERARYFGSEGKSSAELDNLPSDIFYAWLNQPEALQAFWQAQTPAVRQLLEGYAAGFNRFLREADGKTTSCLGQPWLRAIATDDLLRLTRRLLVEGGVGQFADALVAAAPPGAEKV
Sequence of Acyl-homoserine lactone acylase PvdQ (Q9I194 217-762 limits assumed): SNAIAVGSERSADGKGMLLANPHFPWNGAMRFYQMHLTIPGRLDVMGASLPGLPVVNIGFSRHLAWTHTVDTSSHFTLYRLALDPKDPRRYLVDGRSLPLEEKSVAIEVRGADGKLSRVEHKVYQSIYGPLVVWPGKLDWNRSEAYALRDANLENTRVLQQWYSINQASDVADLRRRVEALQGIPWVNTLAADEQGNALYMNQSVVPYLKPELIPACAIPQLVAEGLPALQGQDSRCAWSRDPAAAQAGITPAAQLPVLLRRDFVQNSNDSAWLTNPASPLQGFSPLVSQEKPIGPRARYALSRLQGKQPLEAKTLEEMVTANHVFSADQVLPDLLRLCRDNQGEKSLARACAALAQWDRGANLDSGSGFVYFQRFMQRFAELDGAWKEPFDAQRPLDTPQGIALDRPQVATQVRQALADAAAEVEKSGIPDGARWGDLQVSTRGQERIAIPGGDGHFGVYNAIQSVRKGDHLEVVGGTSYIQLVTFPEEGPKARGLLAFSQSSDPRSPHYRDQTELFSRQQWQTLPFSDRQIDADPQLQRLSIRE
Sequence of Cytochrome P450 2D6 (P10635 whole entry): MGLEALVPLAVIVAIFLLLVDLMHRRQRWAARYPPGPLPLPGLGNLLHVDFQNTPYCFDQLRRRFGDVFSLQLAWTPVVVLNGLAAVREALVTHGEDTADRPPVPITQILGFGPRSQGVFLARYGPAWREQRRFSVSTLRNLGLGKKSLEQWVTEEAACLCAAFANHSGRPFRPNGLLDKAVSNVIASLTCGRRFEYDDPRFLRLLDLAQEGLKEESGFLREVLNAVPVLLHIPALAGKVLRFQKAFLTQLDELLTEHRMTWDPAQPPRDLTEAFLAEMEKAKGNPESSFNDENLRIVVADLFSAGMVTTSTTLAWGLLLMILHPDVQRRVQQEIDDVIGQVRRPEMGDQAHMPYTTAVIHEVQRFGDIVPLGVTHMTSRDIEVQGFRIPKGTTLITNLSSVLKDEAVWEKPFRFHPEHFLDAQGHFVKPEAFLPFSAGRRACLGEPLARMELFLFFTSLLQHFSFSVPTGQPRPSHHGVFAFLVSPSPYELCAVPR
Sequence of Heat shock 70 kDa protein 1A (P0DMV8 whole entry): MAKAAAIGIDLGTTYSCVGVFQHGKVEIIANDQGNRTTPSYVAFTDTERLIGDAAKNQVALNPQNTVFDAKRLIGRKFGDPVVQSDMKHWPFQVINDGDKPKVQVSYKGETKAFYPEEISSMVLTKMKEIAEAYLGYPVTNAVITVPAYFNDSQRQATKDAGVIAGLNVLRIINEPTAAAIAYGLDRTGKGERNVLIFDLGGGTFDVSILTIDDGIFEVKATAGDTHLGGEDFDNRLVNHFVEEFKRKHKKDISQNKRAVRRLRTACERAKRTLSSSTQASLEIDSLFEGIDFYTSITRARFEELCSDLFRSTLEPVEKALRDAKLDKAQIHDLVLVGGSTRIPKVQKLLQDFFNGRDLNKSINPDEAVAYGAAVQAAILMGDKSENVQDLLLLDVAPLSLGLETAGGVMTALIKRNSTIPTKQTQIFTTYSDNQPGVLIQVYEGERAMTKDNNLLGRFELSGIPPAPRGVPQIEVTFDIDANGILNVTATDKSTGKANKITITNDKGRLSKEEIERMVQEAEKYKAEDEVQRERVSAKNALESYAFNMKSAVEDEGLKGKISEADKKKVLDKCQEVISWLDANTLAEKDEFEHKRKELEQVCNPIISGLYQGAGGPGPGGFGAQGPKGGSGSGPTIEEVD
Sequence of Vasopressin V1a receptor (P37288 whole entry): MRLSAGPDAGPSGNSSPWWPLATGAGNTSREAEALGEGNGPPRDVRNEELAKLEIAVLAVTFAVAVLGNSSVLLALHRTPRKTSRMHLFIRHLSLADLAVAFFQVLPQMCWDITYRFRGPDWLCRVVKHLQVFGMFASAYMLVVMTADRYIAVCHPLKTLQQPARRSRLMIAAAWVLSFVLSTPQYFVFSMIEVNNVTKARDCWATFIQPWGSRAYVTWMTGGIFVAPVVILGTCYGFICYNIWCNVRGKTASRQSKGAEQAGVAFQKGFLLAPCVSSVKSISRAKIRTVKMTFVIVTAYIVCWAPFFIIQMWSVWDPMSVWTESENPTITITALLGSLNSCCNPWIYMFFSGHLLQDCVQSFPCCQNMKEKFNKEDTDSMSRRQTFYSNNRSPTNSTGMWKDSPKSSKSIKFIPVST
Sequence of Heat shock cognate 71 kDa protein (P11142 whole entry): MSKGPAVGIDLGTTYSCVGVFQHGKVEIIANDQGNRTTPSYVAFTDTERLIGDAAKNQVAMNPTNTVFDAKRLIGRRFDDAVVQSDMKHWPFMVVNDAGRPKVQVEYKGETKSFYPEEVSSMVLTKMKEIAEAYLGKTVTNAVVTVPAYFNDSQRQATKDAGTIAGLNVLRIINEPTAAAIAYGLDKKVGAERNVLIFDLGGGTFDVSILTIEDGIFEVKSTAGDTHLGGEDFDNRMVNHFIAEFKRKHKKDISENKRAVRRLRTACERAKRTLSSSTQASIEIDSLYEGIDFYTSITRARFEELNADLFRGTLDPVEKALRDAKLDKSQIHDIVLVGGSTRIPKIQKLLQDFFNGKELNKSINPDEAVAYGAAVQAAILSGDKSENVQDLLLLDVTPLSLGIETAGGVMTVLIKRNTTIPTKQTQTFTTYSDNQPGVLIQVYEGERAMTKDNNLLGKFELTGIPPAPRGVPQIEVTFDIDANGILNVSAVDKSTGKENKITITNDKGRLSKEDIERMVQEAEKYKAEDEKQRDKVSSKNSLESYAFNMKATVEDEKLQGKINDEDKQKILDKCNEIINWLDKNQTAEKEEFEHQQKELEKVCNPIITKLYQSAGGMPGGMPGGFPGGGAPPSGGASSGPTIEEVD

`O=C(Nc1cccc([N+](=O)[O-])c1)Nn1cnnc1`: the IC50 is 0.93 µM (active) at Aspartyl aminopeptidase and > 59.6 µM (not active) against Procathepsin L.

Regarding `Cc1cc(-c2nnc(SCC(=O)Nc3ccccc3C(F)(F)F)o2)c(C)n1-c1ccccc1`, the 50% effective concentration (EC50) on Oxytocin receptor and on Vasopressin V1a receptor was > 29.9 µM (not active) throughout.

Turning to `O=c1/c(=C/c2ccco2)sc2nc3cc(Br)cnc3n12`, the IC50 was 0.127 µM (active) in assay [1]; 0.543 µM (active) in [2]; 27.8 µM (active) in assay [3]; 6.58 µM (active) in assay [4]; 1.23 µM (active) in [5]; 0.345 µM (active) in assay [6]. For the same molecule, in [7], the IC50 was 4.4 µM (active).

With `N#CC(c1ccc(Cl)cc1)c1cccc(Cl)n1` (stereo unspecified), the AC50 in [8] was 0.5 µM (active).

As to `NC(=O)c1cccc2c1NC(C(=O)O)C1CC=CC21` (stereo unspecified), the IC50 is 3 µM (active) in assay [2]; 10.4 µM (active) in assay [9]; > 100 µM (not active) in [3]; 55.5 µM (active) in assay [4]; 58.6 µM (active) in [7]; 86 µM (active) in assay [10].

For the molecule `COc1cc(C2C(C#N)=C(N)Oc3cc(N(C)C)ccc32)cc2c1OCO2` (stereo unspecified), the EC50 was > 8 µM (not active) in [11]; 0.106 µM (active) in [14]; > 8 µM (not active) with HEK293 [16]; 0.096 µM (active) in [17]; 2.18 µM (active) in the assay on HEK293 [18]; 0.116 µM (active) in the assay “cells”. In addition, the EC50 with HEK293 [20] is > 8 µM (inactive); in [21] it was < 0.1 µM (active); in the assay on HEK293 [22], > 8 µM (not active); in assay [23] it was < 0.1 µM (active); with BJ, 121 µM (inconclusive). Further, the AC50 is 0.601 µM (active) in assay [12], > 35 µM (active) in the assay with A-375 [13] and > 35 µM (active) with A-375 [15]. The IC50 in assay [19] is > 80 µM (inactive).

`CC[C@H]1C(=O)OC[C@@H]1Cc1cncn1C`: at Cytochrome P450 2C9, the AC50 is 12.6 µM (inconclusive).

Consider `COc1ccc2oc(-c3ccccc3)c(OC)c(=O)c2c1` [3,6-DIMETHOXYFLAVONE], for which the AC50 at Cytochrome P450 2D6 is 39.8 µM (inconclusive); on Cytochrome P450 2C19, 10 µM (inconclusive).
